Assay results from patent US20100221445A1, “O-DESMETHYLVENLAFAXINE AND BAZEDOXIFENE COMBINATION PRODUCT AND USES THEREOF” (Wyeth LLC, priority 2005, published 2010).

Columns and labels:
[1] = tested on: bone loss and cholesterol; settings: ovariectomized rat model of osteopenia; cited from earlier work
[2] = tested on: MCF-7 cell line (human breast cancer cell line); settings: MCF-7 human breast cancer cell line; cited from earlier work
uterine response = settings: preclinical models of uterine stimulation; cited from earlier work
[3] = tested on: reuptake of serotonin and norepinephrine; settings: cited from earlier work
[4] = Storage stability of DVS/Bazedoxifene bilayered tablets (strength, % recovery); settings: 25/60 and 40/75 for 3 months
Procedure: 80 DVS/Bazedoxifene bilayered tablets (150 mg/40 mg respectively) were stored at 25° C./60 relative humidity (RH) and 40° C./75 RH in a 50-mL high density polyethylene (HDPE) closed container for 2 weeks, 1 month and 3 months. The strengths of each active constituents and the dissolution rate in 0.2% Tween 80/10 mM Acetic acid at 37° C. were monitored.

[5] = Dissolution of bilayer tablets in 0.2% Tween 80/10 mM Acetic acid at 37° C.; assay type: physicochemical

Cc1c(-c2ccc(O)cc2)n(Cc2ccc(OCCN3CCCCCC3)cc2)c2ccc(O)cc12 [BZA, 1-[4-(2-azepan-1-yl-ethoxy)-benzyl]-2-(4-hydroxy-phenyl)-3-methyl-1H-indol-5-ol acetic acid]
Effect in preventing bone loss and reducing cholesterol [1]: estrogen agonist-like effect
Behaviour in MCF-7 cell line [2]: estrogen antagonist
Stimulation of uterine response (uterine response): little or no stimulation

CN(C)CC(c1ccc(O)cc1)C1(O)CCCCC1 (stereo not shown) [ODV, 1-[2-(dimethylamino)-1-(4-phenol)ethyl]-cyclohexanol]
Blockade of reuptake of serotonin and norepinephrine [3]: selectively blocks
Stability on storage (in words) [4]: stable

CN(C)CC(c1ccc(O)cc1)C1(O)CCCCC1 (stereo not shown) [DVS]
Release (in words) ([5]; first 2 hours): slow release
Release (in words) ([5]; in 24 hours): complete release
